These are literature values, as cited in patent EP0523846A2, “1,4-Benzodiazepines with 5-membered heterocyclic rings” (MERCK & CO. INC., priority 1991, dated 1993).

The conditions of the series: background statement citing Deschodt-Lanckman et al., Reg. Pept., 2, 15 (1981).

In the case of `CSCC[C@H](NC(=O)[C@H](Cc1ccc(OS(=O)(=O)O)cc1)NC(=O)[C@@H](N)CC(=O)O)C(=O)NCC(=O)N[C@@H](Cc1c[nH]c2ccccc12)C(=O)N[C@@H](CCSC)C(=O)N[C@@H](CC(=O)O)C(=O)N[C@@H](Cc1ccccc1)C(N)=O` [CCK-8s, H-Asp-Tyr(SO₃H)-Met-Gly-Trp-Met-Asp-Phe-NH₂], the half-life entry is reported as “less than 1 hour”.
